Measured values reported in ChEMBL document CHEMBL5331072, “Development of potent and selective FAAH inhibitors with improved drug-like properties as potential tools to treat neuroinflammatory conditions” (Eur J Med Chem, 2023).
≈ marks a conversion by molar mass, not a printed value. Calls of active or inactive are those of the source. The calls are words filed in the database; no cut-off is given here.

Experiments:
[1] = biological target: T1, Fatty-acid amide hydrolase 1 (Homo sapiens, UniProt O00519); test: Inhibition of human recombinant FAAH using AMC-AA as substrate preincubated for 30 mins followed by substrate addition and measured after 30 mins by multimode plate reader analysis
T1 sequence (O00519 whole entry): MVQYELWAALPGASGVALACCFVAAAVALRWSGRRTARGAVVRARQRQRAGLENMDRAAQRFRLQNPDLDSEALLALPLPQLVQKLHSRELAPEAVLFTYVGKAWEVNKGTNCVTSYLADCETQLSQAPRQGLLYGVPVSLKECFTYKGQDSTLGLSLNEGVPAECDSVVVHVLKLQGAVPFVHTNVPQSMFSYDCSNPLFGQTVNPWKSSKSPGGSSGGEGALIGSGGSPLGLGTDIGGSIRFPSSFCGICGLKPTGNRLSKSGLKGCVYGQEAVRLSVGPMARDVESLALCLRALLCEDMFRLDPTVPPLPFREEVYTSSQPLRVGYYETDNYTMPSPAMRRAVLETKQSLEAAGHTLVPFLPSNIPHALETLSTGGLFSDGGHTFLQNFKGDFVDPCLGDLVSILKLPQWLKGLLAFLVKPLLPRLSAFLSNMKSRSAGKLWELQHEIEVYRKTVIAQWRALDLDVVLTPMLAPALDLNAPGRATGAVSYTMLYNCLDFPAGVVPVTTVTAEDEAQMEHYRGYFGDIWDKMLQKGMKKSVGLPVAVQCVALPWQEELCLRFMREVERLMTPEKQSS

Monoglyceride lipase = biological target: T2, Monoglyceride lipase (Homo sapiens, UniProt Q99685); test: Inhibition of human recombinant MAGL using 7-hydroxycoumarinyl arachidonate as substrate preincubated for 30 mins followed by substrate addition and measured after 30 mins by multimode plate reader analysis
T2 sequence (Q99685 whole entry): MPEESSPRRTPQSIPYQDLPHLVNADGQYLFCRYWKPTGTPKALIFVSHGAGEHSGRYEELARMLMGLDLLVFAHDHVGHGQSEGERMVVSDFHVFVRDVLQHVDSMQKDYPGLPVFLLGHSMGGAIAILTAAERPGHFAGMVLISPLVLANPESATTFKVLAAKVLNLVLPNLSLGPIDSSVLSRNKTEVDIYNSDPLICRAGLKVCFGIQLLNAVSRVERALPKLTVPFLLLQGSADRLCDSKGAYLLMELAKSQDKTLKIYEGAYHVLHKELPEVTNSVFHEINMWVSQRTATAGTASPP

[2] = Chemical stability of the compound at pH 3 measured for 24 hrs by HPLC analysis; assay type: physicochemical; settings: buffer, read-out: Stability
[3] = Chemical stability of the compound at pH 7.4 measured for 24 hrs by HPLC analysis; assay type: physicochemical; settings: buffer, read-out: Stability
[4] = Solubility of compound at pH 7.4 measured for 24 hrs; assay type: physicochemical; settings: buffer
[5] = Solubility of compound at pH 3 measured for 24 hrs; assay type: physicochemical; settings: buffer
[6] = Cytotoxicity against mouse NIH3T3 cells assessed as inhibition of cell growth measured for 24 hrs by neutral red uptake assay; assay type: toxicity, cell-based
1321N1 [7] = test: Cytotoxicity against human 1321N1 cells assessed as inhibition of cell growth at 10 nM measured for 24 hrs by MTT assay; assay type: functional; set-up: scale not given: the % may be the effect or the level left
1321N1 [8] = test: Cytotoxicity against human 1321N1 cells assessed as inhibition of cell growth at 100 nM measured for 24 hrs by MTT assay; assay type: functional; set-up: scale not given: the % may be the effect or the level left
1321N1 [9] = test: Cytotoxicity against human 1321N1 cells assessed as inhibition of cell growth at 1 uM measured for 24 hrs by MTT assay; assay type: functional; set-up: scale not given: the % may be the effect or the level left
1321N1 [10] = test: Cytotoxicity against human 1321N1 cells assessed as inhibition of cell growth at 10 uM measured for 24 hrs by MTT assay; assay type: functional; set-up: scale not given: the % may be the effect or the level left
1321N1 [11] = test: Cytotoxicity against human 1321N1 cells assessed as inhibition of cell growth at 30 uM measured for 24 hrs by MTT assay; assay type: functional; set-up: scale not given: the % may be the effect or the level left
1321N1 [12] = test: Antiinflammatory activity against human 1321N1 cells assessed as reduction in TBHP-induced ROS production at 10 nM incubated for 24 hrs by CellROX green reagent based flow cytometry assay; assay type: functional, cell-based
1321N1 [13] = test: Antiinflammatory activity against human 1321N1 cells assessed as reduction in TBHP-induced ROS production at 1 uM incubated for 24 hrs by CellROX green reagent based flow cytometry assay; assay type: functional, cell-based
[14] = Neurotoxicity against Wistar rat Hippocampus assessed as cell survival at 0.3 to 100 nM measured for 96 hrs by densitometric analysis; assay type: toxicity, tissue-based; settings: 0.1 µM, dose 0.3-100 nM
Hippocampus [15] = test: Neuroprotective activity against Wistar rat Hippocampus assessed as reduction in LPS/IFN-gamma induced PI uptake in CA1 region at 0.1 to 10 uM measured for 96 hrs; assay type: functional, tissue-based; settings: dose 0.1-10 µM
Hippocampus [16] = test: Neuroprotective activity against Wistar rat Hippocampus assessed as reduction in LPS/IFN-gamma induced PI uptake in CA1 region measured for 96 hrs; assay type: functional, tissue-based
[17] = biological target: T3, Fatty-acid amide hydrolase 1 (Homo sapiens) (UniProt O00519); test: Reversible inhibition of human recombinant FAAH at 10 to 100 nM using AMC-AA as substrate preincubated for 30 mins followed by substrate addition and measured after 30 mins by rapid dilution method; settings: dose 10-100 nM, time 1.0 hrs
T3 sequence (whole entry): T1 sequence (O00519 whole entry)

[18] = Dissociation constant, pKa of the compound; assay type: physicochemical
Hippocampus [19] = test: Neuroprotective activity against Wistar rat Hippocampus assessed as reduction in LPS/IFN-gamma induced PI uptake in CA1 region at 0.3 to 100 nM measured for 96 hrs; assay type: functional; set-up: scale not given: the % may be the effect or the level left; settings: dose 0.3-100 nM
[20] = Solubility of compound at pH 3 measured for 12 hrs; assay type: physicochemical; settings: buffer
[21] = Solubility of compound at pH 7.4 measured for 12 hrs; assay type: physicochemical; settings: buffer
Hippocampus [22] = test: Neuroprotective activity against Wistar rat Hippocampus assessed as reduction in LPS/IFN-gamma induced PI uptake in CA1 region at 3 to 100 nM measured for 96 hrs; assay type: functional, tissue-based; settings: dose 3-100 nM

Compound | IC50 [1] [nM] | IC50 (Monoglyceride lipase) [nM] | remaining at 24 h [2] [%] | remaining at 24 h [3] [%] | solubility at 24 h [4] [µM] | solubility at 24 h [5] [µM] | other results
Cc1cc(C(=O)O)c(-c2cccc(OC(=O)NCCCCCCc3ccccc3)c2)o1 | 10.5 | 2440 | < 1 | 92.7 | 172 (≈ 72.5 µg/mL) |  | 
Cc1cc(C(N)=O)c(-c2cccc(OC(=O)N3CCN(CCCc4ccccc4)CC3)c2)s1 | 15.6 | > 10000 |  |  |  |  | 
Cc1cc(C(N)=O)c(-c2cccc(OC(=O)NC3CCN(CCc4ccccc4)CC3)c2)o1 | 188 | > 10000 | 96 | > 99 | 67 (≈ 30 µg/mL) | 282 (≈ 126 µg/mL) | 
O=C(NCCCCCCc1ccccc1)Oc1cccc(-c2nn[nH]n2)c1 | 7.54 | 8400 | < 1 | > 99 | 108 (≈ 39.5 µg/mL) |  | IC50 at 24 h [6]: 39000 nM; Activity (1321N1 [7]): 100.8%; Activity (1321N1 [8]): 98.5%; Activity (1321N1 [9]): 98.8%; Activity (1321N1 [10]): 99.8%; Activity (1321N1 [11]): 97%; Activity (1321N1 [12]): Active; Activity (1321N1 [13]): Active; Activity [14]: Non-Toxic; Activity (Hippocampus [15]): Active; Activity (Hippocampus [16]): Dose-Dependent Effect
Cc1cc(C(N)=O)c(-c2cccc(OC(=O)NCCCCCCN3CCN(C)CC3)c2)o1 | 1040 | > 10000 |  |  |  |  | 
NC(=O)c1cccc(-c2cccc(OC(=O)NC3CCCCC3)c2)c1 [URB-597] |  | 9380 |  |  |  |  | inhibition [17]: inactive
Cc1cc(C(=O)O)c(-c2cccc(OC(=O)N3CCN(CCCc4ccccc4)CC3)c2)o1 | 128 | > 10000 | > 99 | 97 | 259 (≈ 116 µg/mL) | 249 (≈ 112 µg/mL) | 
Cc1cc(C(N)=O)c(-c2cccc(OC(=O)N3CCC(NCCCc4ccccc4)CC3)c2)o1 | 165 | 9880 | > 99 | > 99 | 322 (≈ 149 µg/mL) | 353 (≈ 163 µg/mL) | 
Cc1cc(C(N)=O)c(-c2cccc(OC(=O)N3CCN(CCCc4ccccc4)CC3)c2)o1 | 8.29 | 5060 | 98 | > 99 | < 1 | 168 (≈ 75.2 µg/mL) | pKa [18]: 8.5; inhibition [17]: Active; IC50 at 24 h [6]: 6400 nM; Activity (1321N1 [7]): 99.3%; Activity (1321N1 [8]): 97%; Activity (1321N1 [9]): 100%; Activity (1321N1 [10]): 101%; Activity (1321N1 [11]): 96%; Activity (1321N1 [12]): Active; Activity (1321N1 [13]): Active; Activity [14]: Non-Toxic; Activity (Hippocampus [19]): 70%; EC50 (Hippocampus [16]): 2.91 nM
Cc1cc(C(N)=O)c(-c2cccc(OC(=O)NCCCCCCc3ccccc3)c2)o1 |  |  | 31 | 9 |  |  | solubility at 12 h [20]: < 1 µM; solubility at 12 h [21]: < 1 µM; IC50 at 24 h [6]: 19200 nM
NC(=O)c1cn(-c2cccc(OC(=O)NCCCCCCc3ccccc3)c2)nn1 | 15.8 | 479 | 63 | 79 |  |  | IC50 at 24 h [6]: 35000 nM
Cc1cc(C(N)=O)c(-c2cccc(OC(=O)NC3CCN(CCCc4ccccc4)CC3)c2)o1 | 407 | > 10000 |  |  |  |  | 
NC(=O)c1ccn(-c2cccc(OC(=O)NC3CCN(CCc4ccccc4)CC3)c2)c1 | 315 | > 10000 |  |  |  |  | 
NC(=O)c1ccn(-c2cccc(OC(=O)NCCCCCCc3ccccc3)c2)c1 | 3.72 |  | 32 | 38 |  | 3 (≈ 1.22 µg/mL) | 
Cc1cc(C(N)=O)c(-c2cccc(OC(=O)N(C)C3CCN(CCc4ccccc4)CC3)c2)s1 | 8450 | > 10000 |  |  |  |  | 
Cc1cc(C(N)=O)c(-c2cccc(OC(=O)NC3CCN(CCc4ccccc4)CC3)c2)s1 | 194 | > 10000 |  |  |  |  | 
Cc1cc(C(N)=O)c(-c2cccc(OC(=O)N3CCC(CCCc4ccccc4)CC3)c2)o1 | 11.7 | 4120 |  |  |  |  | 
Cc1cc(C(N)=O)c(-c2cccc(OC(=O)N(C)C3CCN(CCc4ccccc4)CC3)c2)o1 | 6560 | > 10000 |  |  |  |  | 
Cc1cc(C(N)=O)c(-c2cccc(OC(=O)N3CCC(NCCc4ccccc4)CC3)c2)o1 | 26.3 | > 10000 | > 99 | > 99 | 206 (≈ 92.2 µg/mL) | 277 (≈ 124 µg/mL) | pKa [18]: 7.6; inhibition [17]: Active; IC50 at 24 h [6]: 45000 nM; Activity [14]: Non-Toxic; Activity (Hippocampus [19]): Active; Activity (Hippocampus [22]): Active
NC(=O)c1cn(-c2cccc(OC(=O)N3CCN(CCCc4ccccc4)CC3)c2)nn1 | 47.4 | 2900 | > 99 | > 99 | 38 (≈ 16.5 µg/mL) | 298 (≈ 129 µg/mL) | 
O=C(Oc1cccc(-c2nn[nH]n2)c1)N1CCN(CCCc2ccccc2)CC1 | 253 | > 10000 | > 99 | > 99 | 272 (≈ 107 µg/mL) | 268 (≈ 105 µg/mL) | 
CN(C(=O)Oc1cccc(-n2ccc(C(N)=O)c2)c1)C1CCN(CCc2ccccc2)CC1 | > 10000 | > 10000 |  |  |  |  | 
